Experimental data taken from PubChem BioAssay (NCI).
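All cell lines were grown in 96-well plates and treated with compound for 48 hours. TGI marks complete inhibition of growth.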

Tests used:
Assay in all cases: inhibition of tumour cell growth, NCI panel, 48 h
786-0 renal = test system: 786-0 renal
CCRF-CEM leukemia = test system: CCRF-CEM leukemia
KM12 colon = test system: KM12 colon
LOX IMVI melanoma = test system: LOX IMVI melanoma
MDA-MB-435 = test system: MDA-MB-435
MOLT-4 leukemia = test system: MOLT-4 leukemia
OVCAR-3 ovarian = test system: OVCAR-3 ovarian
RPMI-8226 leukemia = test system: RPMI-8226 leukemia
SF-539 CNS = test system: SF-539 CNS
SK-MEL-2 melanoma = test system: SK-MEL-2 melanoma
SN12C renal = test system: SN12C renal
SR leukemia = test system: SR leukemia
TK-10 renal = test system: TK-10 renal
UACC-257 melanoma = test system: UACC-257 melanoma
UACC-62 melanoma = test system: UACC-62 melanoma

Compound | TGI (786-0 renal) | TGI (CCRF-CEM leukemia) | TGI (KM12 colon) | TGI (LOX IMVI melanoma) | TGI (MDA-MB-435) | TGI (MOLT-4 leukemia) | TGI (OVCAR-3 ovarian) | TGI (RPMI-8226 leukemia) | TGI (SF-539 CNS) | TGI (SK-MEL-2 melanoma) | TGI (SN12C renal) | TGI (SR leukemia) | TGI (TK-10 renal) | TGI (UACC-257 melanoma) | TGI (UACC-62 melanoma)
O=C(Cn1c(C(=O)/C=C/c2ccc(Cl)c(Cl)c2)nc2ccccc21)c1ccccc1 | 44 µM | 33.3 µM | 56.5 µM | 39.1 µM | 42.4 µM | > 100 µM | 31.9 µM | > 100 µM | 48.2 µM | 47.1 µM | 34.4 µM | 80 µM | 76.6 µM | > 100 µM | > 100 µM
CCCCCCCCCCCCCCCCNc1nc(=O)n(C2CC(O)C(COP(=O)(O)OC3CC(n4cc(F)c(=O)[nH]c4=O)OC3CO)O2)cc1F (stereo not given) | > 100 µM | 17.6 µM | > 81.4 µM | 17.1 µM | > 100 µM | 17.9 µM | > 100 µM | 25.5 µM | 0.956 µM | > 63.9 µM | > 100 µM | 13.1 µM | > 100 µM | > 59 µM | 17.3 µM
c1ccc([P+](Cc2ccc(C[P+](c3ccccc3)(c3ccccc3)c3ccccc3)s2)(c2ccccc2)c2ccccc2)cc1 | > 100 µM | > 100 µM | > 100 µM | > 100 µM | > 100 µM | > 100 µM | > 100 µM | > 100 µM | > 100 µM | > 100 µM | > 100 µM | > 100 µM | > 100 µM | > 100 µM | > 100 µM
O=C1C=CC2(C=C1)O[C@H](CCc1ccccc1)[C@@H](CCc1ccccc1)O2 | > 100 µM | > 100 µM | > 100 µM | 27.3 µM | 76.1 µM | > 100 µM | > 100 µM | > 100 µM | > 100 µM | > 100 µM | > 100 µM | > 100 µM | > 100 µM | > 100 µM | > 100 µM
COC(=O)c1ccc(C)cc1C1CN=NC12Cc1c(C)cccc1C2=O (stereo not given) | > 100 µM | > 100 µM | > 84.8 µM | > 70.7 µM | > 71.2 µM | > 69.6 µM | > 100 µM | > 75.3 µM | > 100 µM | 98.3 µM | > 95.6 µM | > 80.2 µM | > 100 µM | > 81.8 µM | > 68.7 µM
CC1(c2cccc(C(F)(F)F)c2)CC(c2cccc(C(F)(F)F)c2)=C(C#N)C(=C(C#N)C#N)N1 (stereo not given) | 31.2 µM | 24.1 µM | 32.9 µM | 34.1 µM | 32.6 µM | 38.5 µM | 24.6 µM | 47 µM | 34.9 µM | 41.1 µM | 32.8 µM | 30 µM | 30.8 µM | 31.7 µM | 31.3 µM
CCOP(=O)(OCC)/C(C#N)=C/c1cccn1C | > 100 µM | 89 µM | > 100 µM | > 100 µM | > 100 µM | > 100 µM | > 100 µM | > 100 µM | > 100 µM | > 100 µM | > 100 µM | > 100 µM | > 100 µM | > 100 µM | > 100 µM
CC1=NN(c2nc(N)nc(CCl)n2)C(C)(C)C1 | 15.9 µM | > 52.7 µM | 51.5 µM | 3.35 µM | > 100 µM | 50 µM | > 51.8 µM | > 100 µM | 34 µM | > 100 µM | > 68.7 µM | > 69.7 µM | > 100 µM | > 100 µM | 32.5 µM
Cc1cc(NS(=O)(=O)c2ccc(NC(=O)c3ccc4nc5ccccc5c(Nc5ccc(S(N)(=O)=O)cc5)c4c3)cc2)no1 | 30.8 µM | 78.3 µM | 59.1 µM | 26.5 µM | 45.3 µM | 61.8 µM | 74.4 µM | 68 µM | 80.9 µM | 73.3 µM | 81.5 µM | 73.4 µM | 82.9 µM | 57.8 µM | 67.7 µM
COc1cc2c(/C=C3/C(=O)Nc4cc(C)c(O)cc43)c(Cl)[nH]c2cc1C | 8.91 µM | 2.02 µM | 10.2 µM | 35.5 µM | 1.22 µM | 0.835 µM | 3.68 µM | 4.44 µM | 5.93 µM | 23.9 µM | 6.07 µM | 2.05 µM | 7.22 µM | 19.6 µM | 8.77 µM
O=C(O)CNc1ncc2c(n1)-c1ccccc1OC2 | > 100 µM | > 100 µM | > 100 µM | > 100 µM | > 100 µM | > 100 µM | > 100 µM | > 100 µM | > 100 µM | > 100 µM | > 100 µM | > 100 µM | > 100 µM | > 100 µM | > 100 µM
ON[C@@H]1C=C[C@H](n2cnc3c(NC4CC4)ncnc32)C1 | > 100 µM | > 100 µM | > 100 µM | > 100 µM | > 100 µM | > 100 µM | > 100 µM | > 100 µM | > 100 µM | > 100 µM | > 100 µM | > 100 µM | > 100 µM | > 100 µM | > 100 µM
CCc1n[nH]c(=O)n1N | > 100 µM | > 100 µM | > 100 µM | > 100 µM | > 100 µM | > 100 µM | > 100 µM | > 100 µM | > 100 µM | > 100 µM | > 100 µM | > 100 µM | > 100 µM | > 100 µM | > 100 µM
CCOC(=O)C1Cc2ccc(C)cc2C1=O (stereo not given) | > 100 µM | > 100 µM | > 100 µM | > 100 µM | > 100 µM | > 100 µM | > 100 µM | > 100 µM | > 100 µM | > 100 µM | > 100 µM | > 100 µM | > 100 µM | > 100 µM | > 100 µM
CCOC(=O)C1=C(C)N(Cc2ccccc2)C2(O)C=CC(=O)C3C(=O)N(c4ccccc4)C(=O)C132 (stereo not given) | 3.27 µM | 5.51 µM | 4.59 µM | 3.43 µM | 3.86 µM | 5.54 µM | 6.08 µM | 3.1 µM | 3.45 µM | 3.98 µM | 10.6 µM | 2.88 µM | 9.33 µM | 7.59 µM | 4.01 µM
O=C(O)C(C1NCCS1)N1C(=O)c2ccccc2C1=O (stereo not given) | > 100 µM | > 100 µM | > 100 µM | > 100 µM | > 100 µM | > 100 µM | > 100 µM | > 100 µM | > 100 µM | > 100 µM | > 100 µM | > 100 µM | > 100 µM | > 100 µM | > 100 µM
Cc1ccc2c(n1)C(=O)c1cc(C)c(C)cc1C2=O | > 100 µM | > 100 µM | > 100 µM | > 100 µM | > 100 µM | > 100 µM | 67.3 µM | > 100 µM | > 100 µM | > 100 µM | > 100 µM | 85.1 µM | > 100 µM | > 100 µM | > 100 µM
CCSc1c2cc(OC)ccc2nc2ccc(OC)cc12 | > 61 µM | > 42.9 µM | > 55.6 µM | > 76.9 µM | > 57.7 µM | > 34.5 µM | > 61.2 µM | 22.2 µM | > 100 µM | 48.7 µM | 50.9 µM | > 23.5 µM | > 43.7 µM | 30.4 µM | 47.8 µM
CC(C)(C(=O)N(C(=O)N1CCN(c2ccccc2)CC1)S(=O)(=O)c1ccccc1)c1ccc(Cl)cc1 | > 100 µM | > 100 µM | > 100 µM | > 100 µM | > 100 µM | 17.6 µM | 99.3 µM | > 100 µM | > 100 µM | 53.9 µM | > 100 µM | > 100 µM | > 100 µM | > 100 µM | > 100 µM
Cc1ccccc1-n1c(=O)nc2n(-c3ccc(C(C)(C)C)cc3)c3ccccc3cc-2c1=O | 69.9 µM | 50.5 µM | 29.8 µM | 30.3 µM | 27.9 µM | 55.1 µM | 40.9 µM | 52.9 µM | 36 µM | 34.8 µM | 38.1 µM | 59.7 µM | > 100 µM | 37.1 µM | 41 µM
Nc1nc(N)c2ncn(Cc3ccccc3CO)c2n1 | > 100 µM | > 100 µM | > 100 µM | > 100 µM | > 100 µM | > 100 µM | > 100 µM | > 100 µM | > 100 µM | > 100 µM | > 100 µM | > 100 µM | > 100 µM | > 100 µM | > 100 µM
COc1ccc(-c2c(C#N)c(N)nc(Sc3ccccc3N)c2C#N)cc1 | 32.3 µM | > 100 µM | > 100 µM | > 100 µM | > 100 µM | > 100 µM | > 100 µM | > 100 µM | 56.9 µM | 39.7 µM | > 100 µM | > 100 µM | 46 µM | > 100 µM | > 44.5 µM
COc1cc2c(cc1OCCCN1CCOCC1)N=C[C@@H]1CCCN1C2=O | > 100 µM | 25.3 µM | 43.4 µM | > 100 µM | 31 µM | > 100 µM | 8.08 µM | 5.83 µM | 22.3 µM | > 100 µM | > 100 µM | 39.8 µM | > 100 µM | 78.9 µM | 29.2 µM
